From patent US12351559B2 (Biohaven Therapeutics Ltd., priority 2014, dated 2025)

target: T1, Kv7.2/7.3 (Homo sapiens, UniProt O43525+O43526); experiment: Kv7.2/7.3 activation assay, QPatch planar patch-clamp, single concentration screen; format: cell-based; design: key: <1.2-fold increase over baseline (−); +/−: as a range from <1.2-fold increase over baseline (−) up to >6-fold increase over baseline (+++); as a range from <1.2-fold increase over baseline (−) up to >6-fold increase over baseline (+++); as a range from <1.2-fold increase over baseline (−) up to >6-fold increase over baseline (+++); >6-fold increase over baseline (+++); conditions: Kv7.2/Kv7.3 co-expressing HEK cells, compound 3 μM, steady-state current at end of 2 s pulse to −30 mV
T1 construct: host or cells: HEK cells, tetracycline-inducible expression

Kv7.2/7.3 Activity: increase in current over baseline | SMILES
+ | CC(C)(O)CC(=O)Nc1nc2ccc(C(F)(F)F)cc2n1-c1ccc(OC(F)(F)F)cc1 [Example 137, 3-hydroxy-3-methyl-N-(1-(4-(trifluoromethoxy)phenyl)-6-(trifluoromethyl)-1H-benzo[d]imidazol-2-yl)butanamide]
+ | C[C@](O)(CC(=O)Nc1nc2ccc(Cl)cc2n1C1CCC1)c1ccc(F)cc1 [Example 103, (S)-N-(6-chloro-1-cyclobutyl-1H-benzo[d]imidazol-2-yl)-3-(4-fluorophenyl)-3-hydroxybutanamide]
+ | O=C(CC(O)(C1CC1)C1CC1)Nc1nc2ccc(C(F)(F)F)cc2n1C1CCC1 [Example 98, N-(1-cyclobutyl-6-(trifluoromethyl)-1H-benzo[d]imidazol-2-yl)-3,3-dicyclopropyl-3-hydroxypropanamide]
+ | CCOC(=O)Cc1ccc2nc(NC(=O)CC(C)(C)C)n(C3CCC3)c2c1F [Example 110, ethyl 2-(1-cyclobutyl-2-(3,3-dimethylbutanamido)-7-fluoro-1H-benzo[d]imidazol-6-yl)acetate]
+ | C[C@](O)(CC(=O)Nc1nc2ccc(Cl)cc2n1-c1ccc(F)cc1)c1ccccc1 [Example 107, (S)-N-(6-chloro-1-(4-fluorophenyl)-1H-benzo[d]imidazol-2-yl)-3-hydroxy-3-phenylbutanamide]
+ | CC(C)(O)c1ccc2nc(NC(=O)C3CC34CC4)n(C3CCC3)c2c1 (centres unmarked) [Example 105, N-(1-cyclobutyl-6-(2-hydroxypropan-2-yl)-1H-benzo[d]imidazol-2-yl)spiro[2.2]pentane-1-carboxamide]
+/− | Cc1cc2nc(NC(=O)C3CC(F)(F)C3)n(C(C)(C)C)c2cc1C#N [Example 129, N-(1-(tert-butyl)-6-cyano-5-methyl-1H-benzo[d]imidazol-2-yl)-3,3-difluorocyclobutane-1-carboxamide]
++ | C[C@H](C(=O)Nc1nc2ccc(C#N)cc2n1-c1ccc(F)cn1)C(C)(C)C [Example 75, (S)-N-(6-cyano-1-(5-fluoropyridin-2-yl)-1H-benzo[d]imidazol-2-yl)-2,3,3-trimethylbutanamide]
++ | O=C(CC1(O)CCC1)Nc1nc2ccc(C(F)(F)F)cc2n1-c1ccc(OC(F)(F)F)cc1 [Example 142, 2-(1-hydroxycyclobutyl)-N-(1-(4-(trifluoromethoxy)phenyl)-6-(trifluoromethyl)-1H-benzo[d]imidazol-2-yl)acetamide]
+/− | CC(C)(O)CC(=O)Nc1nc2ccc(C(C)(C)O)cc2n1C1CCC1 [Example 85, N-(1-cyclobutyl-6-(2-hydroxypropan-2-yl)-1H-benzo[d]imidazol-2-yl)-3-hydroxy-3-methylbutanamide]
+ | CC(C)(O)CC(=O)Nc1nc2cc(C(F)(F)F)cc(F)c2n1C1CCC1 [Example 133, N-(1-cyclobutyl-7-fluoro-5-(trifluoromethyl)-1H-benzo[d]imidazol-2-yl)-3-hydroxy-3-methylbutanamide]
+/− | Cc1cc2nc(NC(=O)C[C@@](C)(O)C(F)(F)F)n(C(C)(C)C)c2cc1C#N [Example 135, (R)-N-(1-(tert-butyl)-6-cyano-5-methyl-1H-benzo[d]imidazol-2-yl)-4,4,4-trifluoro-3-hydroxy-3-methylbutanamide]

More lines, now with the values behind:

SMILES | Kv7.2/7.3 Activity: increase in current over baseline
C[C@](O)(CC(=O)Nc1nc2ccc(C#N)cc2n1C1CCC1)c1cccnc1 [Example 21, (S)-N-(6-cyano-1-cyclobutyl-1H-benzo[d]imidazol-2-yl)-3-hydroxy-3-(pyridin-3-yl)butanamide] | +/−
C[C@@](O)(CC(=O)Nc1nc2ccc(C#N)cc2n1C1CCC1)c1ccccc1 [Example 30, (R)-N-(6-cyano-1-cyclobutyl-1H-benzo[d]imidazol-2-yl)-3-hydroxy-3-phenylbutanamide] | +
CC(C)(C)CC(=O)Nc1nc2cccc(CO)c2n1C1CCC1 [Example 68, N-(1-cyclobutyl-7-(hydroxymethyl)-1H-benzo[d]imidazol-2-yl)-3,3-dimethylbutanamide] | +
N#Cc1ccc2nc(NC(=O)C[C@@H](O)c3ccccc3)n(C3CCC3)c2c1 [Example 25, (R)-N-(6-cyano-1-cyclobutyl-1H-benzo[d]imidazol-2-yl)-3-hydroxy-3-phenylpropanamide] | +/−
C[C@](O)(CC(=O)Nc1nc2ccc(C#N)cc2n1C1CCC1)c1ccccc1 [Example 29, (S)-N-(6-cyano-1-cyclobutyl-1H-benzo[d]imidazol-2-yl)-3-hydroxy-3-phenylbutanamide] | +
C[C@H](C(=O)Nc1nc2ccc(C#N)cc2n1C1CCC1)C(C)(C)O [Example 13, (S)-N-(6-cyano-1-cyclobutyl-1H-benzo[d]imidazol-2-yl)-3-hydroxy-2,3-dimethylbutanamide] | +/−
C[C@H](C(=O)Nc1nc2ccc(C#N)cc2n1-c1ccc(F)cc1)C(C)(C)C [Example 71, (S)-N-(6-cyano-1-(4-fluorophenyl)-1H-benzo[d]imidazol-2-yl)-2,3,3-trimethylbutanamide] | +
C[C@@](O)(CC(=O)Nc1nc2ccc(C#N)cc2n1-c1ccc(F)cc1)c1ccccc1 [Example 70, (R)-N-(6-cyano-1-(4-fluorophenyl)-1H-benzo[d]imidazol-2-yl)-3-hydroxy-3-phenylbutanamide] | +/−
CC(C)(C(=O)Nc1nc2ccc(C#N)cc2n1C1CCC1)C(O)c1ccccc1 (centres unmarked) [Example 72, N-(6-cyano-1-cyclobutyl-1H-benzo[d]imidazol-2-yl)-3-hydroxy-2,2-dimethyl-3-phenylpropanamide] | +/−
N#Cc1ccc2nc(NC(=O)C3CC(F)(F)C3)n(C3CCC3)c2c1 [Example 9, N-(6-cyano-1-cyclobutyl-1H-benzo[d]imidazol-2-yl)-3,3-difluorocyclobutane-1-carboxamide] | +
Cc1cc(-n2c(NC(=O)CC(C)(C)C)nc3ccc(C#N)cc32)on1 [Example 69, N-(6-cyano-1-(3-methylisoxazol-5-yl)-1H-benzo[d]imidazol-2-yl)-3,3-dimethylbutanamide] | +
CC(C)(C)CC(=O)Nc1nc2ccccc2n1C1CCC1 [Example 1, N-(1-cyclobutyl-1H-benzo[d]imidazol-2-yl)-3,3-dimethylbutanamide] | +
CC1(C)C[C@@H]1C(=O)Nc1nc2ccc(C#N)cc2n1C1CCC1 [Example 11, (S)-N-(6-cyano-1-cyclobutyl-1H-benzo[d]imidazol-2-yl)-2,2-dimethylcyclopropane-1-carboxamide] | ++
CCOC(=O)c1ccc2nc(NC(=O)CC(C)(C)C)n(C3CCC3)c2c1 [Example 50, ethyl 1-cyclobutyl-2-(3,3-dimethylbutanamido)-1H-benzo[d]imidazole-6-carboxylate] | +/−
